The results in this text go back to patent US10166412B2, “Skin lightening composition comprising 4-hexylresorcinol and ilomastat” (Conopco, Inc., priority 2014, dated 2019).

For one test, the target named is T1, Tyrosinase enzyme (Homo sapiens, UniProt P14679).
T1 construct: Primary human melanocytic lysate was used as a source of Tyrosinase enzyme; endogenous in cells; host or cells: primary human melanocytes (lysate)
T1 sequence (P14679 19-529): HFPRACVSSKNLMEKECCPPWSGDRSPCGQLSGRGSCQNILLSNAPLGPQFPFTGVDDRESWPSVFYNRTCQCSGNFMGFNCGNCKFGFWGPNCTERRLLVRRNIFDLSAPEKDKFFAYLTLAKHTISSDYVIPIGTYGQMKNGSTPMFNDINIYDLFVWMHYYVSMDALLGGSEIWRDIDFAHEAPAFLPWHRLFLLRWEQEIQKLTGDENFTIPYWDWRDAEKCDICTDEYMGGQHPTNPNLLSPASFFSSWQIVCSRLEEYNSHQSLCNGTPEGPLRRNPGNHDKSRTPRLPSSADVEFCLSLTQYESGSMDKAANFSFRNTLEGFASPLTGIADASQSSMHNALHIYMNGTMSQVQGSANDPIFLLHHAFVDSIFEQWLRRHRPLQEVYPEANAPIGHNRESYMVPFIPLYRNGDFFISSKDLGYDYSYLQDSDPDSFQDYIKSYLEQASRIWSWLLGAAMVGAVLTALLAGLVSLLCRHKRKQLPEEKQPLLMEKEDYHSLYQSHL
The experiment in a line: In vitro human tyrosinase activity assay (melanocytic lysate). Format: biochemical. On the procedure: (v) In Vitro Human Tyrosinase Activity Assay: • Primary human melanocytic lysate was used as a source of Tyrosinase enzyme. Human melanocytic lysate and test actives (at different concentrations) were incubated together for 15 mins, prior to addition of Tyrosine/DOPA substrate mix. Assay plate was then incubated at 37° C. for ˜14-16 hrs. Optical Density was measured at 405 nm and % inhibition of Tyrosinase activity calculated. Results

In test [1] the test system is primary human melanocytes. The experiment in a line: Melanin content assay in primary human melanocytes. Format: cell-based. The note with it: for inhibition at 1 µM / inhibition at 10 µM: Homo sapiens, Melanocyte, 72 hrs treatment, corrected for cell numbers, read-out: Average % inhibition of cellular melanin; for reduction of melanin content (in words): primary human melanocytes. How it is done: (i) Cell Cultures: • Neonatal foreskin primary human melanocytes were procured from Life Technologies, USA. Cells were grown in Medium 254 supplemented with human melanocyte growth supplement-2 and maintained at 37° C. in a humidified incubator with 5% CO2 atmosphere. The maintenance and sub culturing of cells were carried out as per the manufacturer's instructions. Cells between passages 3-6 were used for experimentation.
(ii) Active Addition: • Cells were seeded at a density of 5×10^4/well in a 24 well plate in Melanocyte Growth Media (MGM) and incubated for 24 hrs at 37° C./5% CO2. Actives were added to cells along with relevant controls. 72 hrs post active treatment, cell viability was determined using the Calcein method followed by measurement of cellular melanin content (described in below sections).
(iii) Cell Viability Assay: • Briefly, spent media was removed and cells washed once with 0.2 ml of 1× PBS-Ca—Mg solution. Fresh 1 μM calcein-AM in PBS buffer was added to each well. Plates were incubated for 30 min. at 37° C. in a CO2 incubator. Calcein fluorescence was then measured (excitation at 490 nm and emission at 520 nm) in TECAN M1000 plate reader.
(iv) Melanin Content Assay: • After Calcein measurements, cultures were rinsed with PBS (1×) and lysed for 1 hour at 60° C. in a shaker incubator using NaOH/DMSO mix. Melanin content was measured in a Tecan plate reader (405 nm filter), corrected for cell numbers and represented as % inhibition.

As to `CCCCCCc1ccc(O)cc1O` [4-HR, 4-Hexylresorcinol], the “direct modulation / inhibition of Tyrosinase enzyme activity (in words)” value at Tyrosinase enzyme is “through direct modulation of Tyrosinase enzyme activity”. The inhibition at 1 µM worked out at 28% against Tyrosinase enzyme (1 μM) and 11% in test [1]. Moreover, 5 µM produced 55% inhibition at Tyrosinase enzyme (5 μM). In addition, the inhibition at 10 µM against Tyrosinase enzyme (10 μM) came out at 78%; in test [1], 38%. Further, the inhibition at 50 µM against Tyrosinase enzyme (50 μM) came to 78%. For the same compound, the “reduction of melanin content (in words)” value in test [1] (concentration not specified) is given as “significant reduction in melanin content”.

For the compound `CNC(=O)[C@H](Cc1c[nH]c2ccccc12)NC(=O)[C@@H](CC(=O)NO)CC(C)C` [Galardin, (R)-N4-Hydroxy-N1-[(S)-2-(1H-indol-3-yl)-1-methylcarbamoyl-ethyl]-2-isobutyl-succinamide], the inhibition at 1 µM in test [1] turned out to be 7%. Further, the inhibition at 10 µM in test [1] amounted to 17%. For the same compound, the “reduction of melanin content (in words)” value in test [1] (at 1 μM) is listed as “no reduction”; in test [1] (at 10 μM) it was “modest reduction”.

In general, inhibition refers to the percentage by which the read-out fell short of the control.
